Laboratory results from patent US7087633B2, “Method for treating perinatal asphyxia in a human or animal neonate” (Universitair Medisch Centrum, priority 2000, dated 2006).
“Also recorded” adds a separate entry of the source.

Tests used:
[1] = test system: newborn Dutch store piglets subjected to HI; conditions: for neurologic score / electrical brain activity (aEEG): 3 to 24 h post HI, versus PLAC, repeated ANOVA, all p<0.05; for piglets died post HI: ALLO n=10 (HI complications, 18 h), DFO n=10 (hypovolemic shock, 13 h), 2-IB n=7 (sepsis)
Protocol: Following anaesthesia and instrumentation 37 newborn Dutch store piglets (1–3 days old) were subjected to HI by occluding both common carotid arteries with inflatable cuffs and reducing the fraction of inspired oxygen for 60 min. MRS was performed continuously before, during and up to 3 h after start of HI and repeated at 24 h post HI. During hypoxia FiO2 was reduced>on-line=until PCr/Pi had decreased to at least 25% of baseline values. Immediately after HI the piglets received either placebo (PLAC; n=10), ALLO (20 mg/kg iv; n=10), DFO (10 mg/kg iv; n=10) or 2-IB (150 μM i.v.; n=7). Before HI and from 3 to 24 h post HI the piglets were monitored using aEEG for electrical brain activity determination. A neurologic scoring system was used ranging from 4 (normal) to 0 (flat trace). For 1H-MRS a PRESS sequence with CHESS water suppression was used to define a 1.7 ml periventricular voxel (TR 6 s, TE 144 ms, and nt=32 or 64). 31 P— MRS was done using a 4 cm-diameter surface coil for excitation and detection (TR 10 s, nt=32). Peak amplitudes of PCr, Pi, Lac and NAA were determined with time domain fitting procedures (VARPRO). Paired t-tests were used to compare measurements at 24 h versus baseline; repeated ANOVA served to monitor for trends between treatment groups.

[2] = test system: brain regions at risk after HI (hippocampus, cortex, striatum and cerebellum); test: Histological analysis and nitrotyrosylation immunohistochemistry of brain at 24 h post HI; type: in vivo, piglet
crossbred piglets = test: Postnatal growth experiments in newborn piglets; type: in vivo, piglet
Protocol: A study in newborn piglets was performed to identify the potential effects of 2-iminobiotin on postnatal growth. Data from 138 crossbred piglets (originating from 28 litters) were collected on a commercial, Dutch pig farm over the period from 21 Jul. 2001 to 6 May 2003.

neuronal NOS = conditions: injectable intraperitoneally; cited from earlier work
[3] = test system: free radical-induced brain damage in newborns; conditions: pilot study in newborn babies and experimental studies; cited from earlier work
neonatal rats [4] = conditions: cited from earlier work
newborn piglets = conditions: cited from earlier work
neonatal rats [5] = conditions: cited from earlier work; remark: listed apart in the source
[6] = 24 h post HI versus baseline, ALLO 20 mg/kg iv, DFO 10 mg/kg iv, 2-IB 150 μM i.v.
[7] = Least Square Means, total 1.1 mg/kg in 24 h after birth, n=67
[8] = during the first 10 days of life, n=67

Q: Which “neurologic score / electrical brain activity (aEEG)” value [1] does the source give for N=C1N[C@H]2[C@H](CS[C@H]2CCCCC(=O)O)N1 [2-IB, 2-iminobiotin] here?
A: significant difference; also recorded: preserved electrical brain activity

Q: What about the Lac/NAA [1, 6] of the same compound?
A: identical to baseline values; also recorded: prevented increment

Q: What about the “PCr/Pi (cerebral energy status)” value [1, 6] of the same compound?
A: identical to baseline values; also recorded: preserved completely

Q: What about the “piglets died post HI” value [1] of the same compound?
A: 1 piglet

Q: What about the “more effective than treatment with allopurinol and/or deferoxamine” value ([1]; in vivo studies involving piglets, versus allopurinol and/or deferoxamine) of the same compound?
A: about 25%

Q: What about the “more effective than placebo treatment in preventing and/or treating the effects” value ([1]; in vivo studies involving piglets, versus placebo) of the same compound?
A: about 60%

Q: What about the “alive cells in brain regions at risk after HI” value ([2]; histology) of the same compound?
A: more alive cells

Q: And the necrosis ([2]; histology)?
A: less necrosis

Q: And the structural architecture ([2]; histology)?
A: better preserved structural architecture

Q: What about the “nitrotyrosylation staining in the affected areas” value ([2]; immunohistochemistry) of the same compound?
A: no staining; also recorded: less nitrotyrosylation staining

Q: And the “Growth at 6 weeks” value (crossbred piglets; [7])?
A: 250 gram/day

Q: And the “Growth at 10 days” value (crossbred piglets; [7])?
A: 208 gram/day

Q: What about the Growth at weaning (crossbred piglets; [7]) of the same compound?
A: 248 gram/day

Q: And the “piglets died (number)” value (crossbred piglets; [8])?
A: 9 piglets

Q: What about the “piglets died (percentage of group)” value (crossbred piglets; [8]) of the same compound?
A: 13%

Q: What about the “Pathology and histology: adverse effects of treatment” value (crossbred piglets; in vivo) of the same compound?
A: no adverse effects

Q: For O=[N+]([O-])c1cccc2cn[nH]c12 [7-nitroindazole], which apoptosis (neuronal NOS) is on record?
A: effective in reducing apoptosis

Q: What about the levels of citrulline (neuronal NOS) of the same compound?
A: reducing the levels of citrulline

Q: Which “neurologic score / electrical brain activity (aEEG)” value [1] does the source give for Oc1ncnc2[nH]ncc12 [ALLO, allopurinol, reference compound] here?
A: significant difference

Q: What about the “PCr/Pi (cerebral energy status)” value [1, 6] of the same compound?
A: prevented partly

Q: What about the “piglets died post HI” value [1] of the same compound?
A: 1 piglet

Q: And the “free radical-induced brain damage in newborns” value [3]?
A: reduce free radical-induced brain damage in newborns to some extend

Q: For CC(=O)N(O)CCCCCNC(=O)CCC(=O)N(O)CCCCCNC(=O)CCC(=O)N(O)CCCCCN [DFO, deferoxamine, reference compound], which “piglets died post HI” value [1] is on record?
A: 1 piglet

Q: For COC(=O)[C@@H](N)CCCNC(=N)N[N+](=O)[O-] [L-NAME, L-nitro-arginine methyl ester], which neuroprotection (neonatal rats [4]) is on record?
A: neuroprotective

Q: For N=C(NCCC[C@H](N)C(=O)O)N[N+](=O)[O-] [NNLA, N^G-nitro-L-arginine], which “cerebral energy status during and after hypoxia-ischemia” value (newborn piglets) is on record?
A: compromised

Q: With N=C(N)NN [aminoguanidine] as the compound, how does the infarct volumes (neonatal rats [5]) read?
A: reduced infarct volumes
